The nature of data set [1]: Absorption and bioavailability after oral administration of femhrt ⅕ / NA/EE tablets. Format: in vivo. Particulars: for bioavailability: human, after oral dosing, first-pass metabolism, read-out: absolute bioavailability. The protocol:
The term “effective dose” means the amount of a progestin and an estrogen required to delay the onset or treat symptoms manifested by skin aging or acne in a particular patient. […] Norethindrone acetate and EE are rapidly absorbed from femhrt ⅕ tablets, with maximum plasma concentrations of norethindrone and EE generally occurring 1 to 2 hours postdose. […] For example, a method for preventing and treating acne in a patient in need of treatment comprising administering an effective amount of Estrostep which contains 1 mg NA and a gradually increasing dose of ethinyl estradiol; 20 mcg×5 days, 30 mcg×7 days, and 35 mcg×9 days in a pharmaceutically acceptable carrier. Other dosage forms may be administered.
Norethindrone acetate and EE are rapidly absorbed from femhrt ⅕ tablets, with maximum plasma concentrations of norethindrone and EE generally occurring 1 to 2 hours postdose. […] The extent of norethindrone absorption is increased by 27% following administration of NA/EE tablets with food.

The next data set can be described thus: Plasma protein binding. Format: in vitro ADME. Particulars: human. From the text:
(§1) Volume of distribution of norethindrone and EE ranges from 2 to 4 L/kg. Plasma protein binding of both steroids is extensive (>95%); norethindrone binds to both albumin and SHBG, whereas EE binds only to albumin.

A short description of data set [2]: Population pharmacokinetic analysis of NA/EE tablets. Particulars: for average steady-state concentrations (Css): femhrt ⅕ (1 mg NA/5 mcg EE), estimated from population pharmacokinetic analysis. The protocol: However, the multiple-dose pharmacokinetics were studied at a dose of 1 mg NA/10 mcg EE in 18 postmenopausal women.
Data set [3] is described as follows: Multiple-dose pharmacokinetics of 1 mg NA/10 mcg EE tablets in 18 postmenopausal women. Format: in vivo, human. Particulars: for Tmax / Cmax / AUC(0-t) / half-life: female, human; for AUC(0-t): read-out: AUC(0-24); for half-life: read-out: t½ (converted).
A short description of data set [4]: Distribution: volume of distribution. Particulars: human, in vivo.
Source text: as §1

The mark [5] stands for this setting: plasma, oral, Single-Dose (Day 1), 1 mg NA/10 mcg EE tablets, Mean (SD).
Setting [6] is: plasma, oral, Steady-State (Day 87), 1 mg NA/10 mcg EE tablets, Mean (SD).

Read-outs that look alike come from different tables or passages of the source.

As usually defined, the bioavailability is the share of a dose that reaches the circulation, judged against a reference dose that is usually intravenous. What is called fraction unbound is the share of the substance not bound to proteins or other matrix. Broadly, the Tmax is the time from dosing to the highest level. As usually defined, the Vd is the apparent volume that relates the amount in the body to the concentration in plasma or blood. Low readings indicate little distribution into tissue, high ones wide distribution into tissue. Turning to `C#C[C@]1(O)CC[C@H]2C3CCc4cc(O)ccc4[C@H]3CCC21C` (stereo partly drawn) [Ethinyl Estradiol], in data set [1] (in vivo), the bioavailability is ~55% and the “effect of high fat meal on absorption” value is recorded as “decreases rate but not extent”. Also, the fraction unbound in “Plasma protein binding” is < 0.05. Besides, the “average steady-state concentrations (Css)” value in data set [2] was 0.0114 ng/mL. In data set [2] (in vivo), the “dose proportionality of mean steady-state plasma concentrations” value was “proportional to dose”, the “dose proportionality of steady-state concentrations” value is recorded as “less than proportional increase” and the “effect of age on pharmacokinetics” value was “not affected by age”. The Tmax in data set [3] (in vivo, Tmax) worked out at 2.2 h. Besides, the Vd in data set [4] fell in the range of 2 to 4 L/kg.

For the molecule `C#C[C@]1(OC(C)=O)CC[C@H]2C3CCC4=CC(=O)CCC4[C@H]3CCC21C` (stereo partly drawn) [NA, (17-alpha)-17-(acetyloxy)-19-norpregna-4-en-20-yn-3-one], in data set [1] (in vivo, po), the deacetylation to norethindrone result was “completely and rapidly deacetylated”. In addition, the “effect of age on pharmacokinetics” value in data set [2] (in vivo) was “not affected by age”.

By Cmax is commonly meant the highest concentration seen after dosing. Take `C#C[C@]1(O)CC[C@H]2[C@@H]3CCC4=CC(=O)CC[C@@H]4[C@H]3CC[C@@]21C` [Norethindrone, norethindrone]: the “increase of extent of absorption with food” value in data set [1] (NA/EE tablets with food) is on record as 27%. The bioavailability in data set [1] (in vivo) was ~64%. For the same molecule, the fraction unbound in “Plasma protein binding” is < 0.05. Besides, the “dose proportionality of mean steady-state concentrations” value in data set [2] (1 mg NA/5 mcg EE and 1/10 compared to 0.5 mg NA/2.5 mcg EE tablets) was “slightly more than proportional to dose”. Besides, in data set [2], the “average steady-state concentrations (Css)” value is on record as 2.6 ng/mL. Besides, the CL/F is recorded as 588 (416) mL/min in data set [3] (Single-Dose (Day 1), 1 mg NA/10 mcg EE tablets, Mean (SD)) and 226 (139) mL/min in data set [3] (Steady-State (Day 87), 1 mg NA/10 mcg EE tablets, Mean (SD)). The figures for the Cmax in data set [3] (setting [5]) and in data set [3] (setting [6]) were 6 ng/mL and 10.7 ng/mL, respectively. Moreover, the figures for the AUC(0-t) in data set [3] (setting [5]) and in data set [3] (setting [6]) were 29.7 ng·h/mL and 81.8 ng·h/mL, respectively. Further, the Tmax in data set [3] (plasma, oral, Single-Dose (Day 1), 1 mg NA/10 mcg EE tablets, Mean (SD), read-out: Tmax) stood at 1.8 h; in data set [3] (plasma, oral, Steady-State (Day 87), 1 mg NA/10 mcg EE tablets, Mean (SD), read-out: Tmax) it was 1.8 h. For the same molecule, the half-life in data set [3] (setting [5]) was 10.3 h; in data set [3] (setting [6]), 13.3 h. The Vd in data set [4] fell in the range of 2 to 4 L/kg.

(Values after patent US20020197286A1, “Method for preventing and treating skin aging” (priority 2001, published 2002).)
